Source: patent US20260364101A1, “OLEUROPEIN IN THE MANAGEMENT OF CANCER” (FUNDACIÓN MIGUEL SERVET, priority 2023, published 2026)
“Also recorded” adds a separate entry of the source.

How the values were obtained:
MC38 cells = assay: MC38 colorectal cancer mouse tumor model, with rechallenge; type: in vivo, C57BL/6 mice; conditions: MC38 s.c.
Protocol: (§1) C57BL/6 female mice were subcutaneously (s.c) injected with […] LLC cells or 0.5×10^6 MC38 cells per animal. When tumor growth reached an average diameter of 3.5 mm (day 0), mice received 100 μg of anti-PD-1 mAb (RPMI-14, BioXCell) intraperitoneally (i.p) at days 0, 5, and 13. Control mice received the same volume of saline. For oleuropein, mice received 300 μg oleuropein at days-1, 2, 4, 6, and 8. As negative control, the same volume of saline was injected.
(§2) The efficacy of all treatments was evaluated every two days by measuring two perpendicular tumor measurements. The size was calculated using the formula: Size=Length x Width. Mice were humanely sacrificed when tumor size reached ~150 mm^2, or when tumor ulceration or evident discomfort were observed. For rechallenge experiments in the MC38 model, mice that rejected tumors were injected s.c. with 5×10^5 MC38 cells in the left flank three months after the first tumor inoculation. Naïve mice were included as controls and development of tumors was evaluated for two months.
(§3) Tumor measurements of in vivo experiments are represented as tumor diameter (mm^2) and plotted either as individual data points for one individual mouse or as mean±SD as indicated in the figure legends. Statistical analysis was performed using one way ANOVA test followed by a Sidak's multiple comparison test at 0.05 level of significance. For in vivo experiments, to compare multiple experimental groups, one-way ANOVA test and Tukey's multiple comparison test were used. Two-tailed Student's t test was applied to compare two experimental groups. Survival of tumor-bearing mice is represented by Kaplan-Meier plots and analyzed by log-rank test. The p values <0.05 were considered statistically significant.
The efficacy of oleuropein and oleuropein/PD-1 blockade combinations were also tested in a colorectal cancer model. To this end, MC38 cells were subcutaneously implanted in mice and allowed to grow until tumors reached a diameter of about […]. Then, oleuropein was administered intraperitoneally one day prior to anti-PD1 mAb injection. […]

MDSCs = assay: morphology of ex vivo MDSC cultures, phase contrast micrographs (FIG. 2a); type: cell-based, mouse; conditions: MDSCs treated with oleuropein
Protocol: Immunosuppressive myeloid cell subsets resembling tumor-infiltrating subsets (g-MDSCs, m-MDSCs and TAMs) were differentiated from mouse bone marrow following published procedures using conditioning medium produced by LLC tumor cells stably expressing GMCSF and MCSF cells. g- and m-MDSCs were purified using the myeloid-derived suppressor cell isolation kit (Miltenyi Biotec, Bergisch, Germany) according to manufacturer's recommendations. MDSCs and TAMs were seeded with 500 nM BML-275 or 50 μM oleuropein and incubated for seven days.

MDSC subsets = assay: abundance of MDSC subsets in vivo; conditions: LXR agonist
CD4 T cells = assay: mixed lymphocyte reaction (MLR) with TAMs as stimulator cells (FIG. 1c,d); type: cell-based, mouse; conditions: treated TAMs as stimulators; 5 days
Protocol: MLR were carried out following standard procedures. Briefly, 100,000 MDSCs or TAMs from C57BL/6 mice were co-cultured in 96-well plates with 100,000 lymphocytes from BALB/c mice. Co-cultured cells were treated with 50 µM oleuropein and compared with control vehicle. After 5 days, T-lymphocyte activation, differentiation and proliferation were assessed by flow cytometry. T-cell activation and proliferation markers (Ki-67) and pro-inflammatory cytokine production (IL-2 and IFNγ) were evaluated by flow cytometry in CD4 and CD8 T cells as described before.
Surface and intracellular staining were carried out as described before with the following fluorochrome-conjugated antibody clones: AF488 anti-CD49d (R1-2), PE anti-CD4 (GK1.5), APCanti-CD8(53-6.7), brilliant Violet 510™ anti-I-A/I-E (M5/114.15.2,PE/Cyanine7anti-Ly-6G (1A8), and APC anti-CD80 (16-10A1) (Biolegend), FITC anti-IL-12 (C15.6) and BV421 anti-IL-2 (JES6-5H4) (BD Bioscience), APC-Vio® 770 anti-Ly-6C (REA796), PE REAfinity™ anti-F4/80 (REA126), and APC anti-CD68 (REA886) (Miltenyi), PerCP-Cyanine5.5 Anti-Human/Mouse CD11b (M1/70) (Tonbo), and AF488 anti-IFNγ (Clone XMG1.2) (BD Pharmigen). […]

TAMCs = assay: apoptotic effect on myeloid cell populations; type: cell-based
LLC cells = assay: LLC lung cancer mouse tumor model resistant to immunotherapy; type: in vivo, C57BL/6 mice; conditions: for tumor growth: 300 μg oleuropein i.p. every other day for eight days
Protocol: as §1, §2, §3
To test antitumor capacities in vivo, LLC cells were implanted subcutaneously into groups of mice and tumors were allowed to grow to an average diameter of approximately […]. This model was chosen because LCC cells are poorly immunogenic and notoriously refractory to PD-L1/PD-1 blockade. Oleuropein was then administered intraperitoneally every other day for eight days.
To address whether oleuropein could be combined with anti-PD1 immunotherapy to treat LCC-derived tumors, anti-PD1 mAb was systemically administered in combination with intraperitoneal injection of oleuropein. As controls, groups of mice treated with each of the agents singly and saline-treated groups were included.

[1] = LLC s.c., oleuropein 300 μg i.p. alone or with anti-PD-1 mAb 100 μg i.p.

## C/C=C1/[C@H](O[C@@H]2O[C@H](CO)[C@@H](O)[C@H](O)[C@H]2O)OC=C(C(=O)OC)[C@H]1CC(=O)OCCc1ccc(O)c(O)c1 [oleuropein]
MC38 cells; oleuropein 300 μg i.p.
  cure rate: 16%
MC38 cells; oleuropein 300 μg i.p. and/or anti-PD-1 mAb 100 μg i.p.
  survival: significant increase in survival
MC38 cells; oleuropein 300 μg i.p. or anti-PD-1 mAb 100 μg i.p.
  tumor growth: significantly delayed the growth of MC38 tumors
MDSCs
  morphology: acquired a dendritic cell-like morphology
MDSC subsets
  abundance of MDSC subsets and of immunosuppressive TME: reduced the abundance of MDSC subsets in vivo as well as of immunosuppressive TME
CD4 T cells
  CD4 T cell stimulation assessed by IFNγ and IL-2 production: potently stimulated
TAMCs
  apoptotic effect: does not provide any apoptotic effect
LLC cells; LLC s.c.
  tumor growth: significantly delayed tumor growth
LLC cells; LLC s.c., listed as Oleuropein
  tumor growth: delayed tumor growth
LLC cells; [1]
  increased survival, time: up to 20 days
  survival: significant increase in long-term survival
LLC cells; LLC s.c., oleuropein 300 μg i.p. alone or with anti-PD-1 mAb 100 μg i.p., listed as Oleuropein
  survival: significantly increased survival
LLC cells; LLC s.c., oleuropein i.p.
  mice responding to the treatment: most of the mice responding to the treatment
LLC cells; tumor model intrinsically resistant to PD-1 blockade
  improvement of aPD-1 therapies: improved aPD-1 therapies in a tumor model intrinsically resistant to PD-1 blockade; also recorded: improved aPD-1 and anti-LAG-3 therapies
